Data from patent US7884199B2, “HCV NS3-NS4 protease resistance mutants” (priority 2003, dated 2011).
Read-outs that look alike come from different tables or passages of the source.

What was measured:
[1] = biological target: wild type HCV NS3 serine protease domain, genotype 1b (Hepatitis C virus genotype 1b, UniProt Q9WMX2); assay: biochemical
[2] = biological target: T1, A156S mutant HCV NS3 serine protease domain (Hepatitis C virus genotype 1b, UniProt Q9WMX2, A1182S); assay: FRET enzyme assay, Ki; assay type: biochemical
T1 construct: A DNA fragment encoding residues Ala^1-Ser^181 of the HCV NS3 protease (GenBank CAB46913); hexa-histidine (C); made in house; host or cells: E. coli BL21/DE3 pLysS

[3] = biological target: T2, D168V mutant HCV NS3 serine protease domain (Hepatitis C virus genotype 1b, UniProt Q9WMX2, D1194V); assay: FRET enzyme assay, Ki; assay type: biochemical
T2 construct: A DNA fragment encoding residues Ala^1-Ser^181 of the HCV NS3 protease (GenBank CAB46913); hexa-histidine (C); made in house; host or cells: E. coli BL21/DE3 pLysS

[4] = biological target: T3, D168A mutant HCV NS3 serine protease domain (Hepatitis C virus genotype 1b, UniProt Q9WMX2, D1194A); assay: FRET enzyme assay, Ki; assay type: biochemical
T3 construct: A DNA fragment encoding residues Ala^1-Ser^181 of the HCV NS3 protease (GenBank CAB46913); hexa-histidine (C); made in house; host or cells: E. coli BL21/DE3 pLysS

[5] = biological target: T4, A156T mutant HCV NS3 serine protease domain (Hepatitis C virus genotype 1b, UniProt Q9WMX2, A1182T); assay: FRET enzyme assay, Ki; assay type: biochemical
T4 construct: A DNA fragment encoding residues Ala^1-Ser^181 of the HCV NS3 protease (GenBank CAB46913); hexa-histidine (C); made in house; host or cells: E. coli

[6] = biological target: T5, A156V mutant HCV NS3 serine protease domain (Hepatitis C virus genotype 1b, UniProt Q9WMX2, A1182V); assay: FRET enzyme assay, Ki; assay type: biochemical
T5 construct: A DNA fragment encoding residues Ala^1-Ser^181 of the HCV NS3 protease (GenBank CAB46913); hexa-histidine (C); made in house; host or cells: E. coli

[7] = tested on: wild-type HCV Con1 sub-genomic replicon cells; assay: HCV replicon cell assay, 48-hour; assay type: cell-based, Hepatitis C virus; conditions: Hepatitis C virus, 48-hour assay
Method: (§1) Cells containing hepatitis C virus (HCV) replicon were maintained in DMEM containing 10% fetal bovine serum (FBS), 0.25 mg per ml of G418, with appropriate supplements (media A).
(§2) On day 1, replicon cell monolayer was treated with a trypsin:EDTA mixture, removed, and then media A was diluted into a final concentration of 100,000 cells per ml with. 10,000 cells in 100 ul were plated into each well of a 96-well tissue culture plate, and cultured overnight in a tissue culture incubator at 37° C.
On day 2, compounds (in 100% DMSO) were serially diluted into DMEM containing 2% FBS, 0.5% DMSO, with appropriate supplements (media B). […]
(§3) A Taqman real-time RT-PCR quantification assay was set up with two sets of specific primers and probe. […] Total RNA extractants from treated HCV replicon cells was added to the PCR reactions for quantification of both HCV and BVDV RNA in the same PCR well. […] The level of HCV RNA in each well was calculated according to a standard curve run in the same PCR plate. The percentage of inhibition or decrease of HCV RNA level due to compound treatment was calculated using the DMSO or no compound control as 0% of inhibition. The cytotoxicity of the compounds was measured using a mitochondrial enzyme-based cell viability assay, CellTiter 96 AQueous One Solution Cell Proliferation Assay (Promega).

[8] = tested on: wild type HCV replicon cells (high efficiency Con1 replicon); assay: HCV replicon cell assay, 48-hour; assay type: cell-based, Hepatitis C virus; conditions: 48-hour assay, HCV RNA level, read-out: Replicon IC50
Source text: (§4) During the course of generating of the HCV sub-genomic replicon stable cell lines, several different patterns of adaptive mutations were identified. One pattern has three substitutions in the HCV nonstructural proteins, which were introduced into the original pBR322-HCV-Neo plasmid by site-directed mutagenesis to generate the second-generation sub-genomic replicon plasmid, pBR322-HCV-Neo-mADE. When the T7 run-offRNA transcripts from the Sca I-linearized pBR322-HCV-Neo-mADE plasmid were electroporated into Huh7 cells, stable replicon cell colonies were formed at a much higher efficiency than the original Con1 replicon RNA. The resistance mutations identified in this study were introduced into the pBR322-HCV-Neo-mADE replicon plasmid by site-directed mutagenesis. Stable replicon cell lines were generated using the T7 transcripts derived from either wild type pBR322-HCV-Neo-mADE or the ones with the resistance mutations.
as §1
On day 1, replicon cell monolayer was treated with a trypsin:EDTA mixture, removed, and then media A was diluted into a final concentration of 100,000 cells per ml with. […]
as §3, with “(Promega). […]” for “(Promega).”

A156S HCV replicon cells = assay: HCV replicon cell assay, 48-hour; assay type: cell-based, Hepatitis C virus
Source text: as §4, §1, §2
(§5) On day 2, compounds (in 100% DMSO) were serially diluted into DMEM containing 2% FBS, 0.5% DMSO, with appropriate supplements (media B). The final concentration of DMSO was maintained at 0.5% throughout the dilution series.
(§6) Media on the replicon cell monolayer was removed, and then media B containing various concentrations of compounds was added. Media B without any compound was added to other wells as no compound controls.
(§7) Cells were incubated with compound or 0.5% DMSO in media B for 48 hours in a tissue culture incubator at 37° C. At the end of the 48-hour incubation, the media was removed, and the replicon cell monolayer was washed once with PBS and stored at −80° C. prior to RNA extraction.
(§8) Culture plates with treated replicon cell monolayers were thawed, and a fixed amount of another RNA virus, such as Bovine Viral Diarrhea Virus (BVDV) was added to cells in each well. RNA extraction reagents (such as reagents from RNeasy kits) were added to the cells immediately to avoid degradation of RNA. Total RNA was extracted according the instruction of manufacturer with modification to improve extraction efficiency and consistency. Finally, total cellular RNA, including HCV replicon RNA, was eluted and stored at −80° C. until further processing.
(§9) A Taqman real-time RT-PCR quantification assay was set up with two sets of specific primers and probe. One was for HCV and the other was for BVDV. Total RNA extractants from treated HCV replicon cells was added to the PCR reactions for quantification of both HCV and BVDV RNA in the same PCR well. Experimental failure was flagged and rejected based on the level of BVDV RNA in each well. The level of HCV RNA in each well was calculated according to a standard curve run in the same PCR plate. The percentage of inhibition or decrease of HCV RNA level due to compound treatment was calculated using the DMSO or no compound control as 0% of inhibition. The cytotoxicity of the compounds was measured using a mitochondrial enzyme-based cell viability assay, CellTiter 96 AQueous One Solution Cell Proliferation Assay (Promega).
(§10) Four HCV sub-genomic replicon stable cell lines, including the wild type (wt), and three mutants, A156S, D168V and D168A, were generated using the T7 RNA runoff transcripts from the corresponding high efficiency Con1 replicon plasmids.

D168A HCV replicon cells = assay: HCV replicon cell assay, 48-hour; assay type: cell-based, Hepatitis C virus; conditions: Hepatitis C virus, 48-hour assay
Source text: as §4, §1, §2, §5, §6, §7, §8, §9, §10

D168V HCV replicon cells = assay: HCV replicon cell assay, 48-hour; assay type: cell-based, Hepatitis C virus; conditions: Hepatitis C virus, 48 h, read-out: Replicon IC50
Source text: as §4, §1, §2, §5, §6, §7, §8, §9, §10

A156T HCV replicon cells = assay: HCV replicon cell assay, 48-hour; assay type: cell-based, Hepatitis C virus
Source text: as §4, §1, §2, §5, §6, §7, §8, §9
(§11) Table 6 summary: Three HCV sub-genomic replicon stable cell lines, including the wild-type, and two mutants, A156T and A156V, were generated using the T7 RNA runoff transcripts from the corresponding high efficiency Con 1 replicon plasmids.

A156V HCV replicon cells = assay: HCV replicon cell assay, 48-hour; assay type: cell-based, Hepatitis C virus
Source text: as §4, §1, §2, §5, §6, §7, §8, §9, §11

[9] = tested on: series A (VX-950-resistant) replicon cells; assay: HCV replicon cell assay, 48-hour; assay type: cell-based, Hepatitis C virus; conditions: Hepatitis C virus; series A replicon cells at day 56
[10] = tested on: series B (BILN 2061-resistant) replicon cells; assay: HCV replicon cell assay, 48-hour; assay type: cell-based; conditions: Hepatitis C virus
[11] = tested on: series C (double-resistant) replicon cells; assay: HCV replicon cell assay, 48-hour; assay type: cell-based, Hepatitis C virus; conditions: 30 μM VX-950, series C replicon cells at day 52
[12] = tested on: series D (double-resistant) replicon cells; assay: HCV replicon cell assay, 48-hour; assay type: cell-based, Hepatitis C virus
[13] = Hepatitis C virus, 48-hour assay

With `CCC[C@H](NC(=O)C1[C@H]2CCC[C@H]2CN1C(=O)[C@@H](NC(=O)[C@@H](NC(=O)c1cnccn1)C1CCCCC1)C(C)(C)C)C(=O)C(=O)NC1CC1` (some centres unmarked) [VX-950] the Ki [1] was 0.1 µM, the Ki [2] was 2.9 µM and the “Ki higher than against the wild type protease” value [2] was 29 fold. It also gave a Ki [3] of 0.043 µM, a Ki [4] of 0.15 µM and a Ki [5] of 9.9 µM. It also gave a Ki [6] of 33 µM, an IC50 [7] of 0.354 µM and an IC50 [8] of 0.402 µM. The IC50 ([8]; Hepatitis C virus, 48 h) was 0.4 µM, the IC50 (A156S HCV replicon cells; Hepatitis C virus) was 4.65 µM and the IC50 (A156S HCV replicon cells; Hepatitis C virus, 48 h, 48-hour assay, read-out: Replicon IC50) was 4.65 µM. It also gave an IC50 (A156S HCV replicon cells; read-out: Replicon IC50, 48-hour assay) of 5.09 µM, an IC50 (D168A HCV replicon cells) of 0.193 µM and an IC50 (D168V HCV replicon cells) of 0.163 µM. The “decrease in sensitivity conferred by the mutation” value (A156T HCV replicon cells) was “at least 75 fold”, the IC50 (A156T HCV replicon cells; [13]) was > 30 µM and the “reduction of HCV replicon RNA” value (A156T HCV replicon cells; up to 30 μM VX-950) was “No significant reduction”. The “decrease in sensitivity conferred by the mutation” value (A156V HCV replicon cells) was “at least 75 fold”, the IC50 (A156V HCV replicon cells; [13]) was > 30 µM and the “reduction of HCV replicon RNA” value (A156V HCV replicon cells; up to 30 μM VX-950) was “No significant reduction”. For the same molecule, the IC50 [9] was 8.1 to 12 µM, the IC50 [10] was ~0.3 µM and the “reduction of HCV RNA” value [11] was ≤ 50%. The “reduction of HCV RNA” value ([12]; 30 μM VX-950, series D replicon cells at day 52) was ≤ 50% and the “IC50 higher than against the series B replicon cells” value ([12]; series D replicon cells at day 52) was “more than 100 fold”.
